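Compound exposure: 48 hours, 5 concentrations, 96-well plates. At the TGI there is no net growth.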
Assays:
Assay in all cases: NCI tumour cell line growth inhibition, 48 h
OVCAR-5 ovarian = test system: OVCAR-5 ovarian
CAKI-1 renal = test system: CAKI-1 renal
RPMI-8226 leukemia = test system: RPMI-8226 leukemia
SF-268 CNS = test system: SF-268 CNS
KM20L2 colon = test system: KM20L2 colon
SW-620 colon = test system: SW-620 colon
UO-31 renal = test system: UO-31 renal
COLO 205 colon = test system: COLO 205 colon
SK-MEL-28 melanoma = test system: SK-MEL-28 melanoma
K-562 leukemia = test system: K-562 leukemia
SF-539 CNS = test system: SF-539 CNS
SNB-78 CNS = test system: SNB-78 CNS
NCI-H460 lung = test system: NCI-H460 lung
HOP-62 NSCLC = test system: HOP-62 NSCLC
SK-MEL-5 melanoma = test system: SK-MEL-5 melanoma
XF 498 CNS = test system: XF 498 CNS
U251 CNS = test system: U251 CNS
DMS 114 small cell lung = test system: DMS 114 small cell lung
MOLT-4 leukemia = test system: MOLT-4 leukemia
M19-MEL melanoma = test system: M19-MEL melanoma
HCT-116 colon = test system: HCT-116 colon
RXF 393 renal = test system: RXF 393 renal
HT29 colon = test system: HT29 colon
RXF-631 renal = test system: RXF-631 renal
EKVX NSCLC = test system: EKVX NSCLC
HOP-18 NSCLC = test system: HOP-18 NSCLC
M14 melanoma = test system: M14 melanoma
NCI-H522 lung = test system: NCI-H522 lung
KM12 colon = test system: KM12 colon
SN12C renal = test system: SN12C renal
OVCAR-3 ovarian = test system: OVCAR-3 ovarian
SF-295 CNS = test system: SF-295 CNS
HCC-2998 colon = test system: HCC-2998 colon
DLD-1 colon = test system: DLD-1 colon
TK-10 renal = test system: TK-10 renal
HCT-15 colon = test system: HCT-15 colon
CCRF-CEM leukemia = test system: CCRF-CEM leukemia
SK-OV-3 ovarian = test system: SK-OV-3 ovarian
MALME-3M melanoma = test system: MALME-3M melanoma
SK-MEL-2 melanoma = test system: SK-MEL-2 melanoma
DMS 273 small cell lung = test system: DMS 273 small cell lung
NCI-H23 lung = test system: NCI-H23 lung
OVCAR-8 ovarian = test system: OVCAR-8 ovarian
A498 renal = test system: A498 renal
NCI-H226 lung = test system: NCI-H226 lung
SNB-19 CNS = test system: SNB-19 CNS
ACHN renal = test system: ACHN renal
UACC-62 melanoma = test system: UACC-62 melanoma
786-0 renal = test system: 786-0 renal
IGROV1 ovarian = test system: IGROV1 ovarian
HL-60(TB) leukemia = test system: HL-60(TB) leukemia
OVCAR-4 ovarian = test system: OVCAR-4 ovarian
A549 NSCLC = test system: A549 NSCLC
LOX IMVI melanoma = test system: LOX IMVI melanoma
LXFL 529 NSCLC = test system: LXFL 529 NSCLC
UACC-257 melanoma = test system: UACC-257 melanoma
HOP-92 NSCLC = test system: HOP-92 NSCLC
SNB-75 CNS = test system: SNB-75 CNS
SR leukemia = test system: SR leukemia

Cc1cc(N(CCC#N)CCC#N)ccc1N=Nc1ccc(Br)cc1
TGI (OVCAR-5 ovarian): > 100 µM
TGI (CAKI-1 renal): > 51.4 µM
TGI (RPMI-8226 leukemia): > 100 µM
TGI (SF-268 CNS): > 100 µM
TGI (KM20L2 colon): > 100 µM
TGI (SW-620 colon): > 100 µM
TGI (UO-31 renal): > 57.6 µM
TGI (COLO 205 colon): > 100 µM
TGI (SK-MEL-28 melanoma): > 100 µM
TGI (K-562 leukemia): > 100 µM
TGI (SF-539 CNS): > 51.9 µM
TGI (SNB-78 CNS): > 65.8 µM
TGI (NCI-H460 lung): > 100 µM
TGI (HOP-62 NSCLC): 20.9 µM
TGI (SK-MEL-5 melanoma): 27.8 µM
TGI (XF 498 CNS): 13.3 µM
TGI (U251 CNS): > 53 µM
TGI (DMS 114 small cell lung): > 71.3 µM
TGI (MOLT-4 leukemia): > 58.8 µM
TGI (M19-MEL melanoma): > 100 µM
TGI (HCT-116 colon): > 100 µM
TGI (RXF 393 renal): 25.8 µM
TGI (HT29 colon): > 100 µM
TGI (RXF-631 renal): 25.1 µM
TGI (EKVX NSCLC): > 74.4 µM
TGI (HOP-18 NSCLC): > 100 µM
TGI (M14 melanoma): > 66 µM
TGI (NCI-H522 lung): 59.8 µM
TGI (KM12 colon): > 100 µM
TGI (SN12C renal): > 54.8 µM
TGI (OVCAR-3 ovarian): > 87.2 µM
TGI (SF-295 CNS): > 51 µM
TGI (HCC-2998 colon): > 79.3 µM
TGI (DLD-1 colon): > 100 µM
TGI (TK-10 renal): 39.8 µM
TGI (HCT-15 colon): > 100 µM
TGI (CCRF-CEM leukemia): > 31.6 µM
TGI (SK-OV-3 ovarian): 11.7 µM
TGI (MALME-3M melanoma): > 100 µM
TGI (SK-MEL-2 melanoma): 48.9 µM
TGI (DMS 273 small cell lung): > 31.6 µM
TGI (NCI-H23 lung): > 51.3 µM
TGI (OVCAR-8 ovarian): > 96.1 µM
TGI (A498 renal): 30 µM
TGI (NCI-H226 lung): > 46.5 µM
TGI (SNB-19 CNS): > 57.6 µM
TGI (ACHN renal): > 42.2 µM
TGI (UACC-62 melanoma): > 87.2 µM
TGI (786-0 renal): 38.3 µM
TGI (IGROV1 ovarian): > 57.3 µM
TGI (HL-60(TB) leukemia): > 100 µM
TGI (OVCAR-4 ovarian): > 100 µM
TGI (A549 NSCLC): > 45.9 µM
TGI (LOX IMVI melanoma): > 47.1 µM
TGI (LXFL 529 NSCLC): > 100 µM
TGI (UACC-257 melanoma): > 100 µM

c1ccc2c(c1)oc1ccc3nsnc3c12
TGI (OVCAR-5 ovarian): > 100 µM
TGI (CAKI-1 renal): > 100 µM
TGI (SF-268 CNS): > 100 µM
TGI (KM20L2 colon): > 100 µM
TGI (SW-620 colon): > 100 µM
TGI (UO-31 renal): > 100 µM
TGI (COLO 205 colon): > 100 µM
TGI (SK-MEL-28 melanoma): > 100 µM
TGI (K-562 leukemia): > 100 µM
TGI (SF-539 CNS): > 100 µM
TGI (NCI-H460 lung): > 10 µM
TGI (SK-MEL-5 melanoma): > 100 µM
TGI (HOP-92 NSCLC): > 100 µM
TGI (DMS 114 small cell lung): > 100 µM
TGI (MOLT-4 leukemia): > 100 µM
TGI (M19-MEL melanoma): > 100 µM
TGI (HCT-116 colon): > 100 µM
TGI (RXF 393 renal): > 100 µM
TGI (HT29 colon): > 100 µM
TGI (RXF-631 renal): > 100 µM
TGI (EKVX NSCLC): > 100 µM
TGI (HOP-18 NSCLC): > 100 µM
TGI (SNB-75 CNS): > 100 µM
TGI (M14 melanoma): > 100 µM
TGI (NCI-H522 lung): > 100 µM
TGI (KM12 colon): > 100 µM
TGI (OVCAR-3 ovarian): > 100 µM
TGI (SF-295 CNS): > 100 µM
TGI (HCC-2998 colon): > 100 µM
TGI (DLD-1 colon): > 100 µM
TGI (TK-10 renal): > 10 µM
TGI (HCT-15 colon): > 100 µM
TGI (CCRF-CEM leukemia): > 100 µM
TGI (SK-OV-3 ovarian): > 100 µM
TGI (MALME-3M melanoma): > 100 µM
TGI (SK-MEL-2 melanoma): > 100 µM
TGI (DMS 273 small cell lung): > 100 µM
TGI (NCI-H23 lung): > 100 µM
TGI (A498 renal): > 100 µM
TGI (SR leukemia): > 100 µM
TGI (NCI-H226 lung): > 100 µM
TGI (SNB-19 CNS): > 100 µM
TGI (ACHN renal): > 100 µM
TGI (UACC-62 melanoma): > 100 µM
TGI (786-0 renal): > 100 µM
TGI (IGROV1 ovarian): > 100 µM
TGI (HL-60(TB) leukemia): > 100 µM
TGI (OVCAR-4 ovarian): > 100 µM
TGI (A549 NSCLC): > 100 µM
TGI (LOX IMVI melanoma): > 10 µM
TGI (LXFL 529 NSCLC): > 100 µM
TGI (UACC-257 melanoma): > 100 µM

Source: PubChem BioAssay (NCI)
